The record followed here is patent US20230183224A1, “BEZOXAZINE DERIVATIVES USEFUL AS MONOACYLGLYCEROL LIPASE INHIBITORS” (Hoffmann-La Roche Inc., priority 2017, published 2023).

The structures appear in SMILES notation.

For the experiment, the target named is T1, MAGL (recombinant wild-type) (Homo sapiens, UniProt Q99685).
T1 sequence (Q99685 1-303): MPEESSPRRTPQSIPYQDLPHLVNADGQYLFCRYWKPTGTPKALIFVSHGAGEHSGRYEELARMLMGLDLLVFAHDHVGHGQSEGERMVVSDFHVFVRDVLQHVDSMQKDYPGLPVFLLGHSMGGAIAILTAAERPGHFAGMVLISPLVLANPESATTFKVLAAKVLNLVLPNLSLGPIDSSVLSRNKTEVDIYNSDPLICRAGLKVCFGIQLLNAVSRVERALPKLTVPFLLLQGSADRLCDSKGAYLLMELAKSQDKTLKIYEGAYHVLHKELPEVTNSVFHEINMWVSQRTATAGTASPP
As to the kind of experiment: MAGL inhibitory activity, hydrolysis of 4-nitrophenylacetate to 4-nitrophenol (absorbance at 405 nm). The settings on record: 1 nM MAGL, 300 μM 4-nitrophenylacetate, 15 min preincubation at RT, slope of absorbance at 405 nm between 5 and 80 min. The experiment is classed as biochemical. On the procedure: Compounds were profiled for MAGL inhibitory activity by measuring the enzymatic activity of MAGL by following the hydrolysis of 4-nitorphenylacetate resulting in 4-nitrophenol, which absorbs at 405-412 nm (G. G. Muccioli, G. Labar, D. M. Lambert, Chem. Bio. Chem. 2008, 9, 2704-2710).
The assay was carried out in 384 well assay plates (black with clear bottom, non-binding surface treated, Corning Ref. 3655) in a total volume of 40 μL. Compound dilutions were made in 100% DMSO (VWR Chemicals 23500.297) in a polypropylene plate in 3-fold dilution steps to give a final concentration range in the assay from 25 μM to 1.7 nM. 1 μL compound dilutions (100% DMSO) were added to 19 μL MAGL (recombinant wild-type) in assay buffer (50 mM TRIS (GIBCO, 15567-027), 1 mM EDTA (Fluka, 03690-100 ml)). The plate was shaked for 1 min at 2000 rpm (Variomag Teleshake) and then incubated for 15 min at RT. To start the reaction, 20 μL 4-Nitrophenlyacetate (Sigma N-8130) in assay buffer with 6% EtOH was added. The final concentrations in the assay were 1 nM MAGL and 300 μM 4-Nitrophenylacetate. After shaking (1 m, 2000 rpm) and 5 min incubation at RT, the absorbance at 405 nm was measured for a first time (Molecular Devices, SpectraMax Paradigm). A second measurement was then done after incubation for 80 min at RT. From the two measurements, the slope was calculated by subtracting the first from the second measurement.

The IC50 is the midpoint of a concentration-inhibition curve. For `O=C1COc2ccc(C(=O)N3CCC(N4C[C@@H](c5ccccc5)OC4=O)CC3)cc2N1` [Example 19, 6-[4-[(5R)-2-oxo-5-phenyl-1,3-oxazolidin-3-yl]piperidine-1-carbonyl]-4H-1,4-benzoxazin-3-one], the concentration for half-maximal inhibition (IC50) was found to be 2.49 µM.

On to `O=C1COc2ccc(C(=O)N3CCC(C(=O)c4ccccc4)CC3)cc2N1` [Example 13, 6-(4-benzoylpiperidine-1-carbonyl)-4H-1,4-benzoxazin-3-one], for which the IC50 amounted to 0.32 µM.

On to `O=C1COc2ccc(C(=O)N3CC(Cc4ccc(C(F)(F)F)cc4)C3)cc2N1` [Example 29, 6-[3-[[4-(trifluoromethyl)phenyl]methyl]azetidine-1-carbonyl]-4H-1,4-benzoxazin-3-one], for which the IC50 was 0.15 µM.

As to `COc1cccc(CC2CCN(C(=O)c3ccc4c(c3)NC(=O)CO4)CC2)c1` [Example 6, 6-[4-[(3-methoxyphenyl)methyl]piperidine-1-carbonyl]-4H-1,4-benzoxazin-3-one], the IC50 is 0.052 µM.

In the case of `O=C1COc2ccc(C(=O)N3CCC(N(C(=O)Cc4ccccc4)C4CC4)CC3)cc2N1` [Example 33, N-cyclopropyl-N-[1-(3-oxo-4H-1,4-benzoxazine-6-carbonyl)piperidin-4-yl]-2-phenylacetamide], the IC50 amounted to 0.31 µM.

For the compound `O=C1COc2ccc(C(=O)N3CCC(Cc4ccccc4-c4ccccc4)CC3)cc2N1` [Example 21, 6-[4-[(2-phenylphenyl)methyl]piperidine-1-carbonyl]-4H-1,4-benzoxazin-3-one], the 50% inhibitory concentration (IC50) amounted to 0.13 µM.

As to `O=C1COc2c(F)cc(C(=O)N3CCC(Cc4ccccc4)CC3)cc2N1` [Example 24, 6-(4-benzylpiperidine-1-carbonyl)-8-fluoro-4H-1,4-benzoxazin-3-one], the half-maximal inhibitory concentration (IC50) came to 0.14 µM.

Take `O=C1COc2ccc(C(=O)N3CCC(F)(Cc4ccc(Cl)cc4)CC3)cc2N1` [Example 23, 6-[4-[(4-chlorophenyl)methyl]-4-fluoropiperidine-1-carbonyl]-4H-1,4-benzoxazin-3-one]: the IC50 worked out at 0.3 µM.

As for `O=C1COc2ccc(C(=O)N3CCC(N4C[C@H](c5ccccc5)OC4=O)CC3)cc2N1` [Example 11, 6-[4-[(5S)-2-oxo-5-phenyl-1,3-oxazolidin-3-yl]piperidine-1-carbonyl]-4H-1,4-benzoxazin-3-one], the IC50 amounted to 1.26 µM.

Regarding `O=C1COc2ccc(C(=O)N3CCC(Oc4ccccc4)CC3)cc2N1` [Example 14, 6-(4-phenoxypiperidine-1-carbonyl)-4H-1,4-benzoxazin-3-one], the IC50 was 0.99 µM.

Take `O=C1COc2ccc(C(=O)N3CCC(Cc4ccc(C(F)(F)F)cc4)C3)cc2N1` (stereo not drawn) [Example 31, 6-[3-[[4-(trifluoromethyl)phenyl]methyl]pyrrolidine-1-carbonyl]-4H-1,4-benzoxazin-3-one]: the concentration for half-maximal inhibition (IC50) stood at 0.4 µM.

In the case of `O=C1COc2ccc(C(=O)N3CCC(Oc4ccccc4)C3)cc2N1` (stereo not drawn) [Example 18, 6-(3-phenoxypyrrolidine-1-carbonyl)-4H-1,4-benzoxazin-3-one], the concentration for half-maximal inhibition (IC50) was 1.04 µM.

`O=C1COc2ccc(C(=O)N3CCC(Cc4cccc(C(F)(F)F)c4)CC3)cc2N1` [Example 17, 6-[4-[[3-(trifluoromethyl)phenyl]methyl]piperidine-1-carbonyl]-4H-1,4-benzoxazin-3-one]: the IC50 was 0.0395 µM.

`O=C1COc2ccc(C(=O)N3CCC(Cc4cccc(F)c4F)CC3)cc2N1` [Example 16, 6-[4-[(2,3-difluorophenyl)methyl]piperidine-1-carbonyl]-4H-1,4-benzoxazin-3-one]: the half-inhibitory concentration (IC50) amounted to 0.066 µM.

For the compound `O=C1COc2ccc(C(=O)N3CCC(Cc4ccccc4)CC3)nc2N1` [Example 26, 6-(4-benzylpiperidine-1-carbonyl)-4H-pyrido[3,2-b][1,4]oxazin-3-one], the concentration for half-maximal inhibition (IC50) came out at 2.06 µM.

Consider `CN(C(=O)c1ccccc1)C1CCN(C(=O)c2ccc3c(c2)NC(=O)CO3)CC1` [Example 25, N-methyl-N-[1-(3-oxo-4H-1,4-benzoxazine-6-carbonyl)piperidin-4-yl]benzamide], for which the IC50 was 0.83 µM.

With `N#Cc1ccc(CC2CCN(C(=O)c3ccc4c(c3)NC(=O)CO4)CC2)cc1` [Example 20, 4-[[1-(3-oxo-4H-1,4-benzoxazine-6-carbonyl)piperidin-4-yl]methyl]benzonitrile], the IC50 is 0.37 µM.

Turning to `O=C1COc2ccc(C(=O)N3CCC(S(=O)(=O)c4ccccc4)CC3)cc2N1` [Example 10, 6-[4-(benzenesulfonyl)piperidine-1-carbonyl]-4H-1,4-benzoxazin-3-one], the IC50 was 4.22 µM.

Consider `O=C1COc2ccc(C(=O)N3CCC(Cc4ccc(C(F)(F)F)cc4)CC3)cc2N1` [Example 4, 6-[4-[[4-(trifluoromethyl)phenyl]methyl]piperidine-1-carbonyl]-4H-1,4-benzoxazin-3-one], for which the half-inhibitory concentration (IC50) is 0.0347 µM.

Take `O=C1COc2ccc(C(=O)N3CCC(C(=O)N4CCCCC4)CC3)cc2N1` [Example 27, 6-[4-(piperidine-1-carbonyl)piperidine-1-carbonyl]-4H-1,4-benzoxazin-3-one]: the IC50 amounted to 4.24 µM.

On to `O=C1COc2ccc(C(=O)N3CCN(C(=O)c4ccc(C(F)(F)F)cc4)CC3)cc2N1` [Example 32, 6-[4-[4-(trifluoromethyl)benzoyl]piperazine-1-carbonyl]-4H-1,4-benzoxazin-3-one], for which the half-inhibitory concentration (IC50) came out at 2.18 µM.

As to `O=C1COc2ccc(C(=O)N3CCC(Cc4cc(F)cc(F)c4)CC3)cc2N1` [Example 9, 6-[4-[(3,5-difluorophenyl)methyl]piperidine-1-carbonyl]-4H-1,4-benzoxazin-3-one], the IC50 stood at 0.058 µM.

Take `O=C1COc2ccc(C(=O)N3CCC(O)(Cc4ccccc4)CC3)cc2N1` [Example 7, 6-(4-benzyl-4-hydroxypiperidine-1-carbonyl)-4H-1,4-benzoxazin-3-one]: the IC50 was 4.35 µM.

On to `COc1ccc(CC2CCN(C(=O)c3ccc4c(c3)NC(=O)CO4)CC2)cc1` [Example 5, 6-[4-[(4-methoxyphenyl)methyl]piperidine-1-carbonyl]-4H-1,4-benzoxazin-3-one], for which the IC50 is 0.17 µM.

Regarding `O=C1COc2ccc(C(=O)N3CCN(Cc4ccccc4)CC3)cc2N1` [Example 2, 6-(4-benzylpiperazine-1-carbonyl)-4H-1,4-benzoxazin-3-one], the IC50 was determined as 3.72 µM.

With `O=C1COc2ccc(C(=O)N3CCC(Cc4ccccc4)CC3)cc2N1` [Example 1, 6-(4-benzylpiperidine-1-carbonyl)-4H-1,4-benzoxazin-3-one], the IC50 was 0.101 µM.

For the compound `O=C1COc2ccc(C(=O)N3CCC(Cc4ccccn4)CC3)cc2N1` [Example 22, 6-[4-(pyridin-2-ylmethyl)piperidine-1-carbonyl]-4H-1,4-benzoxazin-3-one], the IC50 came to 1.7 µM.

On to `CC1CN(C(=O)c2ccc3c(c2)NC(=O)CO3)CCN1Cc1ccc(C(F)(F)F)cc1` (stereo not drawn) [Example 34, 6-[3-methyl-4-[[4-(trifluoromethyl)phenyl]methyl]piperazine-1-carbonyl]-4H-1,4-benzoxazin-3-one], for which the concentration for half-maximal inhibition (IC50) was determined as 0.449 µM.

Take `O=C1COc2ccc(C(=O)N3CCC(Cc4cccc(F)c4)CC3)cc2N1` [Example 8, 6-[4-[(3-fluorophenyl)methyl]piperidine-1-carbonyl]-4H-1,4-benzoxazin-3-one]: the half-inhibitory concentration (IC50) amounted to 0.047 µM.

In the case of `O=C1COc2ccc(C(=O)N3CCC(Oc4ccc(C(F)(F)F)cc4)CC3)cc2N1` [Example 15, 6-[4-[4-(trifluoromethyl)phenoxy]piperidine-1-carbonyl]-4H-1,4-benzoxazin-3-one], the IC50 amounted to 0.076 µM.
